Tested on: ICR mouse skin
Assay: Mouse skin penetration experiment, Franz diffusion cell
Format: in vitro ADME, ICR outbred albino mice
Conditions: after 24 hr
Method: In order to evaluate the transdermal penetration rate of the micelle nanoparticles of Example 1, a mouse skin penetration experiment was performed through a Franz diffusion cell using the micelle nanoparticles as a sample. The mouse skin was extracted from the back of ICR outbred albino mice (12-week-old, about 50 g, females), which were killed by cervical dislocation. The subcutaneous fat was removed from the extracted skin (1.5 cm×1.5 cm) so that the skin was not hurt, and the dermis was used without being removed. The skin was fixed between the donor and the receptor phase so that the stratum corneum part of the back skin of the prepared ICR mice faced upwards.
The transepidermal area contacting the receptor phase was 0.6362 cm^2, and the receptor phase was a mixed solution of 2.0% HCO-60 (in 20% ethanol), showing the highest solubility in the preliminary experiments. 5 ml of the receptor phase was placed in a Franz diffusion cell, and the temperature was maintained at 37.0±0.5° C. using a constant-temperature water bath. Stirring to homogeneity was performed at 150 rpm for 24 hr. 0.5 ml of each sample was applied to the transepidermal surface of the donor, after which 0.75 ml of the receptor phase was collected every 8 hr (a total of 3 times) for 24 hr through a sampling port using a 1 ml syringe and stored in a 1.5 ml tube. Immediately after collection, supplementation with the same amount of the receptor solution was conducted. As such, the collected sample was analyzed through HPLC in order to quantify […] therein.
In order to measure the amount of PhS1P remaining on the skin, unpenetrated samples were washed three times with PBS immediately after taking the skin out of the diffusion cell. […] The ethanol was evaporated to dryness, after which PhS1P was dissolved again in 0.75 ml of ethanol, and the amount of PhS1P remaining on the skin was quantified through HPLC. […]

CCCCCCCCCCCCCC[C@@H](O)[C@@H](O)[C@@H](N)COP(=O)(O)O [PhS1P solution, phytosphingosine-1-phosphate]
amount of PhS1P remaining in the stratum corneum (tape stripping): 1.81 µg | amount of PhS1P that penetrated the skin (final cumulative) (receptor phase sampled every 8 hr, 0.5 ml sample): 2.52 µg | amount of PhS1P present in the skin (tape-stripped skin): 2.72 µg

Source: US10751274B1, “Fast-acting micelle nanoparticle and cosmetic composition comprising same” (FOREST COMPANY, priority 2017, dated 2020)
